According to ChEMBL document CHEMBL2449286, “Structure-activity data for a series of P-glycoprotein inhibitors (Supplementary Data to CHEMBL1142990)”:

Target: ATP-dependent translocase ABCB1 (Homo sapiens, UniProt P08183)
Sequence (P08183 whole entry): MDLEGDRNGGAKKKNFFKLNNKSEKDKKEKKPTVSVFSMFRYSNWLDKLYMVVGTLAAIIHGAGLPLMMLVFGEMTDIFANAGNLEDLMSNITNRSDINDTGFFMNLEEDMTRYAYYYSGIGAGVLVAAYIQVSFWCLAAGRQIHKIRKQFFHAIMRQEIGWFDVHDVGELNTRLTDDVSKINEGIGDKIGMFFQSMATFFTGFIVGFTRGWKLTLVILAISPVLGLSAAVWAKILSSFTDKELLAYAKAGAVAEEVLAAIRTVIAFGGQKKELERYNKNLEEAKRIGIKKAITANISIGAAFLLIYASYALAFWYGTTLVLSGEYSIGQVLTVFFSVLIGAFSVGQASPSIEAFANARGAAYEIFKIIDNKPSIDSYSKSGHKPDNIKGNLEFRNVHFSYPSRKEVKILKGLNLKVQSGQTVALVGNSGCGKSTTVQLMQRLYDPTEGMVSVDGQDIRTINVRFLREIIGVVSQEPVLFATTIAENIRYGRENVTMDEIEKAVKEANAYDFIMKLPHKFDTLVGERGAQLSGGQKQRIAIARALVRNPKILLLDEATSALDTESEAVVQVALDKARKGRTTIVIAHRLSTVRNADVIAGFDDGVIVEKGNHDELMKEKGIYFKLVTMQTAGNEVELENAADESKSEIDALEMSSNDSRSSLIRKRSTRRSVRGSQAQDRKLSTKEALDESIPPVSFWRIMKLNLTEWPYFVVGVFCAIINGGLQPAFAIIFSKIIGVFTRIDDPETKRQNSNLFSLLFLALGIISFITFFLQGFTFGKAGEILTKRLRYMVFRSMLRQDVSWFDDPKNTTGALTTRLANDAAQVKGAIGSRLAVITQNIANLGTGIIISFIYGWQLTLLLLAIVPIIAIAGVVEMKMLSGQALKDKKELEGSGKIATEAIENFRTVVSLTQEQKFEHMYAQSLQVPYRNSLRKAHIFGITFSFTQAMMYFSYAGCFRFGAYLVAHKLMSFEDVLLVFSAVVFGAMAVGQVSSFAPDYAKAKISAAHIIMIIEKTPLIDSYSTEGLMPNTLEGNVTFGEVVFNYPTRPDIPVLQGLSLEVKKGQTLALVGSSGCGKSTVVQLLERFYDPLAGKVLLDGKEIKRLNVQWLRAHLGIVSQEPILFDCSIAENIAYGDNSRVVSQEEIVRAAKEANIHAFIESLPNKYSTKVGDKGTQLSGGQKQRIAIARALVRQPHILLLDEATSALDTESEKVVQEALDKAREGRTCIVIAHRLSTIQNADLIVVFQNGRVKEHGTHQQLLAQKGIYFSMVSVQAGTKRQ

Row | EC50 | SMILES
1 | 0.0589 µM | Cc1ccccc1N1CCN(C[C@@H](O)COc2ccc(Cl)cc2C(=O)CCc2ccccc2)CC1
2 | 0.871 µM | CC(C)(C)OC(=O)N1CCN(C[C@@H](O)COc2ccccc2C(=O)c2ccccc2)CC1
3 | 0.525 µM | O=C(CCc1ccccc1)c1cc(O)ccc1OC[C@H](O)CN1CCN(Cc2ccccc2)CC1
4 | 53.7 µM | CC(C)[C@@H](CO)N[C@@H]1c2cc(C#N)ccc2OC(C)(C)[C@H]1O
5 | 1 µM | COc1ccc([C@@H]2Nc3ccccc3C(=O)N2c2ccc(Oc3ccccc3)cc2)cc1
6 | 0.468 µM | CC(C)N(C[C@@H](O)COc1ccccc1C(=O)CCc1cccc2ccccc12)C(C)C
7 | 0.776 µM | CC(C)(C)OC(=O)C(Cc1ccccc1)N[C@H]1c2cc(C#N)ccc2OC(C)(C)[C@@H]1O (stereo not given in full)
8 | 49 µM | CC(C)[C@@H]1CO[C@@H]2[C@@H](N1)c1cc(C#N)ccc1OC2(C)C
9 | 0.245 µM | Cc1ccc(OC[C@H](O)CN2CCN(c3ccc(F)cc3)CC2)c(C(=O)CCc2ccccc2)c1
10 | 14.5 µM | C[C@H](N[C@H]1c2cc(C#N)ccc2OC(C)(C)[C@@H]1O)C(=O)OC(C)(C)C
11 | 0.174 µM | CO[C@H](CCc1ccccc1)c1ccccc1OC[C@H](O)CN1CCCCC1
12 | 0.316 µM | O=C(/C=C/c1ccccc1)c1ccccc1OC[C@H](O)CN1CCCCC1
13 | 0.646 µM | OC(CN1CCCCC1)C1Oc2ccccc2C1CCc1ccccc1 (stereo not given)
14 | 0.295 µM | CC(C)(C)[C@@H](NC[C@@H](O)COc1ccccc1C(=O)CCc1ccccc1)c1ccccc1
15 | 35.5 µM | CC1(C)Oc2ccc(C#N)cc2[C@H](NCc2ccccc2)[C@H]1O
16 | 3.16 µM | CC(=O)c1cc(C)ccc1OC[C@H](O)CN1CCN(c2ccc(C)cc2)CC1
17 | 47.9 µM | CC(C)[C@H]1C(=O)O[C@H]2[C@@H](c3cc(C#N)ccc3OC2(C)C)N1C
18 | 8.51 µM | O=C(CCc1ccccc1)c1ccccc1OC[C@H](O)CNc1ccc(C(F)(F)F)cc1
19 | 0.148 µM | O=C(c1ccccc1)c1ccccc1OC[C@H](O)CN1CCN(c2ccc(F)cc2)CC1
20 | 1230 µM | C[C@@H]1N[C@@H]2c3cc(C#N)ccc3OC(C)(C)[C@H]2OC1=O
21 | 12.6 µM | CC(=O)c1cc(C)ccc1OC[C@H](O)CN1CCOCC1
22 | 95.5 µM | CCCNC[C@@H](O)Cn1c(C)c(C(=O)c2cccs2)c(=O)n1-c1ccccc1
23 | 0.794 µM | O=C(CCc1ccccc1)c1ccccc1OC[C@H](O)CNCC(c1ccccc1)c1ccccc1
24 | 81.3 µM | Cc1c(C(=O)c2ccccc2)c(=O)n(-c2ccccc2)n1C[C@H](O)CNC(C)(C)C
25 | 11.5 µM | O=C(c1ccccc1)c1cccc(OC[C@H](O)CN2CCOCC2)c1

Row | EC50 | SMILES
26 | 4.27 µM | CCC(=O)c1ccccc1OC[C@H](O)CN(C(C)C)C(C)C
27 | 0.0309 µM | COc1ccc(C(=O)CCc2ccccc2)c(OC[C@H](O)CN2CCN(c3ccccc3C)CC2)c1
28 | 7.76 µM | CCC(=O)c1ccc(OC[C@H](O)CN(C(C)C)C(C)C)cc1
29 | 4.79 µM | CC(C)[C@H](N[C@@H]1c2cc(C#N)ccc2OC(C)(C)[C@H]1O)C(=O)O
30 | 49 µM | C[C@H]1c2ccccc2O[C@H]1CN1CCCCC1
31 | 2.19 µM | O=C(c1ccccc1)c1ccc(OC[C@H](O)CN2CCCCC2)cc1
32 | 0.891 µM | Cc1ccccc1N1CCN(C[C@@H](O)Cn2c(C)c(C(=O)c3ccccc3)c(=O)n2-c2ccccc2)CC1
33 | 27.5 µM | CC(C)[C@@H]1C(=O)O[C@@H]2[C@H](c3cc(C#N)ccc3OC2(C)C)N1C
34 | 1.38 µM | Cc1ccc(C(=O)N2c3ccccc3[C@@H](N(CCO)Cc3ccccc3)[C@@H](O)[C@H]2C)cc1
35 | 0.0525 µM | O=C(c1ccccc1)c1ccccc1OC[C@@H](O)CN1CCN(C[C@@H](O)COc2ccccc2C(=O)c2ccccc2)CC1
36 | 0.174 µM | Cc1cccc(N2CCN(C[C@@H](O)COc3cccc(C(=O)c4ccccc4)c3)CC2)c1C
37 | 0.11 µM | CCCNC[C@@H](O)COc1ccc(OCc2ccccc2)cc1C(=O)CCc1ccccc1
38 | 1.74 µM | CC(C)N(C[C@@H](O)COc1ccccc1[C@H](O)CCc1ccccc1)C(C)C
39 | 186 µM | CCCNC[C@@H](O)Cn1c(C)c(C(=O)c2ccccc2)c(=O)n1-c1ccccc1
40 | 1.05 µM | CC(C)N(C[C@@H](O)COc1ccc(O)cc1C(=O)CCc1ccccc1)C(C)C
41 | 0.302 µM | CCC(=O)c1ccccc1OC[C@H](O)CN1CCC(O)(c2ccccc2)CC1
42 | 0.871 µM | CCC(=O)c1ccc(OC[C@H](O)CN2CCN(c3ccccc3C)CC2)cc1
43 | 0.407 µM | Cc1ccccc1N1CCN(C[C@@H](O)COc2ccc(C(=O)CCc3cccc4ccccc34)cc2)CC1
44 | 0.537 µM | CC(=O)c1cccc(OC[C@H](O)CN2CCN(c3ccccc3C)CC2)c1
45 | 257 µM | CC1(C)Oc2ccc(C#N)cc2[C@@H]2NC(Cc3ccccc3)C(=O)O[C@H]21 (stereo not given in full)
46 | 1.45 µM | CCC(=O)c1ccc(OC[C@H](O)CN2CCN(c3ccc(F)cc3)CC2)cc1
47 | 3.02 µM | CCCNC[C@@H](O)COc1ccc(O)cc1C(=O)CCc1ccccc1
48 | 0.479 µM | Cc1ccc(NC(=O)N2CCN(C[C@@H](O)COc3ccccc3C(=O)c3ccccc3)CC2)cc1
49 | 17.8 µM | O=C1C[C@H](CN2CCN(c3ccc(F)cc3)CC2)Oc2ccccc21
50 | 0.977 µM | CC(C)[C@H](C(=O)OC(C)(C)C)N(C)[C@H]1c2cc(C#N)ccc2OC(C)(C)[C@@H]1O

Row | EC50 | SMILES
51 | 1.7 µM | CCCN(C[C@@H](O)COc1ccccc1C(=O)CCc1ccccc1)C(=O)c1ccccc1
52 | 0.0741 µM | Cc1ccccc1N1CCN(C[C@@H](O)COc2cccc(C(=O)CCc3ccccc3)c2)CC1
53 | 6.92 µM | O=C(CCc1ccccc1)c1ccc(OC[C@H](O)CN2CCOCC2)cc1
54 | 9.12 µM | CCN(CCO)[C@@H]1c2ccccc2N(C(=O)c2ccc(C)cc2)[C@H](C)[C@@H]1O
55 | 0.178 µM | CC(=O)c1ccc(OC[C@H](O)CNCCC(c2ccccc2)c2ccccc2)cc1
56 | 776 µM | CNC1c2cc(C#N)ccc2OC(C)(C)C1O (stereo not given)
57 | 0.174 µM | O=C(CCc1ccccc1)c1cc(OCc2ccccc2)ccc1OC[C@H](O)CN1CCCCC1
58 | 105 µM | C[C@H]1c2ccccc2O[C@H]1C(=O)N1CCCCC1
59 | 9.12 µM | CC(=O)c1cccc(OC[C@H](O)CN2CCCCC2)c1
60 | 0.661 µM | O=C(CCc1ccccc1)c1ccccc1OC[C@H](O)CN1CCN(Cc2ccccc2)CC1
61 | 28.8 µM | C[C@H]1C(=O)O[C@@H]2[C@H](c3cc(C#N)ccc3OC2(C)C)N1C
62 | 0.0141 µM | COc1ccc(CCC(=O)c2ccccc2OC[C@H](O)CN2CCN(c3ccccc3C)CC2)cc1
63 | 47.9 µM | C[C@H]1C(=O)O[C@H]2[C@@H](c3cc(C#N)ccc3OC2(C)C)N1C
64 | 13.5 µM | O=C(c1ccccc1)c1ccccc1OC[C@H](O)CN1CCOCC1
65 | 0.145 µM | O=C(CCc1cccc2ccccc12)c1cccc(OC[C@H](O)CN2CCCCC2)c1
66 | 0.0589 µM | CC(C)N(C[C@@H](O)COc1cccc(C(=O)CCc2cccc3ccccc23)c1)C(C)C
67 | 10 µM | CC(=O)c1cccc(OC[C@H](O)CN2CCN(c3ccc(F)cc3)CC2)c1
68 | 0.437 µM | CC(C)N(C[C@@H](O)COc1ccc(C(=O)c2ccccc2)cc1)C(C)C
69 | 0.017 µM | Cc1ccccc1N1CCN(C[C@@H](O)COc2cc(Cl)c(Cl)cc2C(=O)CCc2ccccc2)CC1
70 | 0.724 µM | O=C(CCc1cccc2ccccc12)c1ccccc1OC[C@H](O)CN1CCOCC1
71 | 1.7 µM | O[C@H](COc1ccccc1[C@@H](O)CCc1ccccc1)CN1CCCCC1
72 | 75.9 µM | CC1(C)Oc2ccc(C#N)cc2C(NCc2ccccc2)C1O (stereo not given)
73 | 0.0759 µM | O=C(CCc1cccc2ccccc12)c1ccccc1OC[C@H](O)CN1CCC(O)(c2ccccc2)CC1
74 | 7.41 µM | CC(=O)c1cc(C)ccc1OC[C@H](O)CN1CCN(C(=O)Nc2ccc(C)cc2)CC1
75 | 46.8 µM | CC(C)(C)OC(=O)CN[C@H]1c2cc(C#N)ccc2OC(C)(C)[C@@H]1O

Row | EC50 | SMILES
76 | 2.69 µM | CC1(C)Oc2ccc(C#N)cc2[C@H]2N[C@@H](Cc3ccccc3)C(=O)O[C@@H]21
77 | 83.2 µM | Cc1c(C(=O)c2ccccc2)c(=O)n(-c2ccccc2)n1C[C@H](O)CNC(C)C
78 | 102 µM | CC(C)[C@@H](CO)N[C@H]1c2cc(C#N)ccc2OC(C)(C)[C@@H]1O
79 | 0.12 µM | CCC(=O)c1ccccc1OC[C@H](O)CNCCC(c1ccccc1)c1ccccc1
80 | 0.0708 µM | O=C(CCc1ccccc1)c1ccccc1OC[C@H](O)CN1CCN(c2ccc(F)cc2)CC1
81 | 20.9 µM | COc1ccc([C@@H]2Nc3ccccc3C(=O)N2c2ccc(NC(C)=O)cc2)cc1
82 | 10 µM | CC(=O)c1ccccc1OC[C@H](O)CN(C(C)C)C(C)C
83 | 2.69 µM | CCN(CC)CCC[C@H](C)N[C@@H]1c2ccccc2N(C(=O)c2ccc(C)cc2)[C@H](C)[C@@H]1O
84 | 0.174 µM | O=C(CCc1cccc2ccccc12)c1ccccc1OC[C@H](O)CN1CCCCC1
85 | 25.1 µM | CCOc1ccc(N2C(=O)c3ccccc3N[C@H]2c2ccc(N(C)C)cc2)cc1
86 | 0.724 µM | O=C(CCc1ccccc1)c1ccccc1OC[C@H](O)CNCCC(c1ccccc1)c1ccccc1
87 | 0.912 µM | CC(C)N(C[C@@H](O)COc1ccc(C(=O)CCc2ccccc2)cc1)C(C)C
88 | 6.92 µM | CC(C)C(CO)N(C)[C@H]1c2cc(C#N)ccc2OC(C)(C)[C@@H]1O (stereo not given in full)
89 | 209 µM | CCC(=O)c1ccccc1OC[C@H](O)CN1CCOCC1
90 | 2.57 µM | O=C(CCc1ccccc1)c1ccccc1OC[C@H](O)CNc1ccc([N+](=O)[O-])cc1
91 | 1.66 µM | Cc1ccc(OC[C@H](O)CN2CCOCC2)c(C(=O)CCc2ccccc2)c1
92 | 24 µM | Cc1c(C(=O)c2ccccc2)c(=O)n(C)n1C[C@H](O)CN(C(C)C)C(C)C
93 | 1.66 µM | CCC(=O)N(Cc1ccccc1)C[C@@H](O)COc1ccccc1C(=O)CCc1ccccc1
94 | 7.94 µM | Cc1ccc(C(=O)N2c3ccccc3[C@@H](N3CCCC3)[C@@H](O)[C@H]2C)cc1
95 | 6.17 µM | CC(=O)c1cc(C)ccc1OC[C@H](O)CN(C(C)C)C(C)C
96 | 2.69 µM | CCCCNC[C@@H](O)Cn1c(C)c(C(=O)CCc2ccccc2)c(=O)n1-c1ccccc1
97 | 1.62 µM | c1ccc(CC[C@H]2c3ccccc3O[C@H]2CN2CCCCC2)cc1
98 | 0.676 µM | O[C@@H](COc1ccccc1[C@H](O)CCc1ccccc1)CN1CCN(c2ccc(F)cc2)CC1

Row | SMILES | EC50
99 | CC(C)[C@@H](CCl)N(C)[C@@H]1c2cc(C#N)ccc2OC(C)(C)[C@H]1O | 35.5 µM
100 | CC(C)[C@@H](CCl)N(C)[C@H]1c2cc(C#N)ccc2OC(C)(C)[C@@H]1O | 44.7 µM
